Data: US20060159676A1, “Methods for modulating angiogenesis, lymphangiogenesis, and apoptosis with apelin compositions” (priority 2005, published 2006)

Experiments:
apelin expression = assay: Apelin expression in rat cardiac myocytes under cobalt chloride (hypoxia mimic), PCR; assay type: cell-based
Method: Because HIF-1α consensus sites are present in the apelin regulatory region, experiments were conducted to determine whether apelin expression is hypoxia responsive and regulated by HIF-1α. Upregulation of apelin expression under hypoxic conditions would be consistent with a role for apelin in promotion of tumor angiogenesis. Preliminary experiments were carried out using primary rat cardiomyocyte cells in culture and treatment with cobalt chloride. This procedure is accepted as an equivalent to culturing cells under hypoxic conditions because HIF-1α is a metal responsive transcription protein (Ladoux and Frelin, 1994; Piret et al., 2002; Maxwell and Salnikow, 2004). Fetal rat cardiac myocytes were plated and cultured in DMEM (Invitrogen, Carlsbad, Calif.) supplemented with 10% fetal calf serum and penicillin/streptomyocin at 37° C. After four days of culture, medium was removed, and cells were treated with fresh media containing 150 μM Cobalt Chloride (Piret et al., 2002). […] After 4 hours of culture, cells were harvested, and total RNA was extracted using the Trizol procedure according to the manufacturers recommendations (Invitrogen, Carlsbad, Calif.).
Following PCR, amplification products were fractionated on an agarose gel and visualized using ethidium bromide staining under ultraviolet light (FIG. 12). […]

[1] = test system: mouse endothelial cells (bEnd3); assay: bEnd3 endothelial cell proliferation (BrdU incorporation); assay type: cell-based
Method: Similar cellular proliferation assays were performed using mouse endothelial cells (bEnd3) that constitutively express APJ. […] SU1498 was included in proliferation cultures at a 25 μM concentration, and results were assayed using BrdU incorporation.
Proliferation inhibition experiments with the bEnd3 cells also were carried out using FGF (50 ng/ml) or the FGF pathway inhibitor SU5402 (FIG. 19). SU5402 was included in proliferation cultures at a 20 μM concentration, and results were assayed using BrdU incorporation.

[2] = test system: BAE/APJ#2 cells (bovine aortic endothelial cells expressing mouse APJ); assay: BAE/APJ#2 endothelial cell proliferation (BrdU incorporation); assay type: cell-based; conditions: SU1498 10 ng/ml
Method: SU1498 was included in proliferation cultures at a concentration of 10 ng/ml and results were assayed using BrdU incorporation. After growth factor incubation, BrdU was added to each well at a final concentration of 10 μM for 2 hours, cells were washed, and fixed for BrdU immunocytochemistry.
Cells were fixed in 100% ice cold methanol at 4° C. for 2 hours to overnight. Prior to staining, cells were air dried and rehydrated for 3 minutes with PBS buffer. DNA was denatured at 37° C. with 2 M HCl, and neutralized with 2 washes for 5 minutes in 0.1 M borate buffer (pH 8.5). […] FITC-labeled anti-BrdU antibody (5 μg/ml) in block was added for 1 hour at room temperature. Cells were counterstained with propidium iodide following several washes in PBS buffer. For each experiment, 4 random fields were photographed for determination of percentage BrdU labeling.

BAE/APJ#2 cells = conditions: 10 ng/ml in bottom chamber, 16 hours
Method: Bovine aortic endothelial cells (BAE) were cultured in DMEM supplemented with 10% fetal bovine serum (FBS) and penicillin/streptomycin. For generation of stable cell lines expressing APJ, the mouse APJ coding region was cloned into the pcDNA 3.1 vector downstream of the CMV promoter, in frame with a myc epitope at the C-terminal end of the protein, and upstream of the neomycin gene. Bovine aortic endothelial (BAE) cells were transfected with this construction using the Superfect transfection kit (Qiagen) and selected for resistance to G418 (600 μg/ml). Colonies were isolated and screened using RT-PCR for expression of mouse APJ and also by immunocytochemistry for expression of the myc epitope.
Cell migration assays were performed using Transwell cell culture migration chambers (Becton Dickinson) with 8 micron pore size. BAE/APJ#2 cells were plated in serum free conditions in 100 μl at a concentration of 1×10^5 ml in the upper chamber of the migration chamber. Following cell attachment to the membrane, 10 ng/ml of growth factor was added to the bottom chamber, in a total volume of 0.5 ml. […] Cells attached to the membrane in the lower chamber were stained with DAPI, and 3 random fields were counted for each experimental condition.

lymphatic vessels = assay: In vivo lymphatic vessel branching assay, quail CAM; conditions: collagen disk with 50 ng apelin or 100 ng VEGF-C on CAM of 7 day quail embryos, 18 hours
Method: (§1) All experiments were carried out using chorioallantoic membranes (CAMs) of quail embryos. Quail embryos used for the lymphatic experiments were 7 days old. Collagen purified from rat tails (Bernanke and Markwald, 1982) was polymerized in 2 mm disks at a final concentration of approximately 1.6 mg/ml in standard phosphate buffered saline (PBS). The total volume of the collagen disk was approximately 10 μl. For experimental treatments, the collagen disks were supplemented with either 50 ng of apelin peptide or 100 ng of VEGF-C protein prior to polymerization at 37° C. for 30 minutes. The VEGF-C was a positive control for these experiments. (Recombinant Human VEGF-C (Cys156Ser), R&D Systems, cat # 752-vc). Apelin peptide was synthesized by Sigma-Genosys (>90% purity).
For lymphangiogenesis assays, the CAMs of 7 day quail embryos were exposed, in ovo, and the collagen disks were placed directly onto the surface of the CAM. […]
(§2) The samples were incubated with primary antibody (Prox1, Research Diagnostics, cat # RDI-102PA30, diluted to 2 μg/ml final concentration) for 4 hours at room temperature or overnight at 4° C. […] Both the lymphatic cell number as well as the number of lymphatic branches were determined.
Both blood vessels and lymphatic vessels were stained with the QH-1 antibody. […] The number of lymphatic vessels branching away from blood vessels (towards the collagen disk) were counted. […]

[3] = test system: lymphatic endothelial cells; assay: In vivo lymphatic cell number assay, quail CAM (Prox1 staining); conditions: collagen disk with 50 ng apelin or 100 ng VEGF-C on CAM of 7 day quail embryos, 18 hours
Method: as §1, with “purity). […]” for “purity).”
as §2
Assays for lymphatic cell number were carried out in areas of the CAM that were close to the location of the collagen disk as described above. Since Prox1 specifically stains lymphatic endothelial cell nuclei, the number of cells in the lymphatic branches was counted directly. […]

## [Cl][Co][Cl] [Cobalt Chloride]
Apelin expression; 150 μM Cobalt Chloride, 4 hours, fetal rat cardiac myocytes
  apelin expression: significantly increased
Apelin expression; Cobalt chloride 30 μg/ml, rat cardiac myocytes
  apelin expression: induced

## CC(C)c1cc(/C=C(\C#N)C(=O)NCCCc2ccccc2)cc(C(C)C)c1O [SU1498]
[1]; SU1498 25 μM, VEGF 50 ng/ml
  effect on VEGF-mediated proliferation: partially inhibits VEGF-mediated proliferation
[1]; SU1498 25 μM, apelin 10 ng/ml
  effect on apelin-mediated proliferation: no significant effect on apelin-mediated proliferation
[2]; VEGF 10 ng/ml
  effect on VEGF-mediated proliferation: partially inhibits VEGF-mediated proliferation
[2]; apelin 10 ng/ml
  effect on apelin-mediated proliferation: no significant effect on apelin-mediated proliferation

## Cc1c[nH]c(/C=C2\C(=O)Nc3ccccc32)c1CCC(=O)O [SU5402]
[1]; SU5402 20 μM, FGF 50 ng/ml
  effect on FGF-mediated proliferation: partially inhibited the proliferative effect of FGF
[1]; SU5402 20 μM, apelin 10 ng/ml
  effect on apelin-stimulated cellular proliferation: did not have a significant effect on apelin-stimulated cellular proliferation

## VEGF
BAE/APJ#2 cells
  endothelial cell migration (cells per field): increase in migration
[1]; apelin 10 ng/ml or VEGF 50 ng/ml, 0.1 ng/ml to 1 μg/ml (FIG. 17)
  cellular proliferation of endothelial cells: proliferate upon the addition of VEGF or apelin

B1: VEGF-C: Recombinant Human VEGF-C (Cys156Ser), R&D Systems; positive control for lymphangiogenesis (protein, UniProt P49767 112-227, looked up, variant C156S)
Vascular endothelial growth …: AHYNTEILKSIDNEWRKTQCMPREVCIDVGKEFGVATNTFFKPPSVSVYRCGGCCNSEGLQCMNTSTSYLSKTLFEITVPLSQGPKPVTISFANHTSCRCMSKLDVYRQVHSIIRR
Lymphatic vessels
  number of lymphatic vessels branching away from blood vessels: positive regulator of lymphatic branching angiogenesis
[3]
  lymphatic cell number (Prox1 positive nuclei): mitogenic factor for lymphatic endothelial cells
